Experimental data reported in paper PMC10424186 (Journal of Medicinal Chemistry, 2023).
Like-named read-outs stand apart in the source and are kept apart here.

Assays:
[1] = molecular target: T1, RIOX2 (Homo sapiens, UniProt Q8IUF8); test: SPE-MS RIOX2 inhibition assay (RPL27A31–49 hydroxylation); assay type: biochemical; details: Table 2; His6-RIOX2 26–465 […], 5.0 μM RPL27A31–49; n = 2, mean ± SD
T1 construct: N-terminally His6-tagged RIOX2_26–465; made in house; host or cells: Escherichia coli
T1 sequence (Q8IUF8 26-465): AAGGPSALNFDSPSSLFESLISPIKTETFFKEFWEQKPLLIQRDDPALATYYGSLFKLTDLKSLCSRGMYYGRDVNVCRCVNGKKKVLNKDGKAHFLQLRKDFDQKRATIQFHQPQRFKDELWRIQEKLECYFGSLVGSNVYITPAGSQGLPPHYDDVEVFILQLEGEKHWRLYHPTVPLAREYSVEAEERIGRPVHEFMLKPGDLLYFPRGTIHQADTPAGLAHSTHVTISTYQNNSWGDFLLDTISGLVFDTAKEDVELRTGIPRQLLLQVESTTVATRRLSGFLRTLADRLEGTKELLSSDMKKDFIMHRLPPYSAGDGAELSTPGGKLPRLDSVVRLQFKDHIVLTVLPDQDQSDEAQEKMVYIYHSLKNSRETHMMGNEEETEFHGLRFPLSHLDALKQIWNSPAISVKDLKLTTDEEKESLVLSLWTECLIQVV
Description: Cosubstrate/cofactor stock solutions [L-ascorbic acid/LAA: 50 mM in MQ-grade water; 2-oxoglutarate/2OG: 10 mM in MQ-grade water; ammonium iron(II) sulfate hexahydrate/FAS/(NH4)2Fe(SO4)2·6H2O: 400 mM in 20 mM HCl diluted to 1 mM in MQ-grade water] were freshly prepared from commercial solids (Sigma-Aldrich) on the day the assays were performed. […] For JMJD5, PHD2, FIH, RIOX2, and AspH, substrate hydroxylation was monitored (+16 Da mass shift), while for the KDM4E substrate, demethylation was monitored (−14 Da mass shift) by SPE-MS.

[2] = molecular target: T2, PHD2 (Homo sapiens, UniProt Q9GZT9); test: SPE-MS PHD2 inhibition assay (HIF-1α CODD hydroxylation); assay type: biochemical; details: Table 2; PHD2 181–426 […], 5.0 μM HIF-1α CODD; n = 2, mean ± SD
T2 construct: His6-PHD2_181–426; made in house; host or cells: Escherichia coli
T2 sequence (Q9GZT9 181-426): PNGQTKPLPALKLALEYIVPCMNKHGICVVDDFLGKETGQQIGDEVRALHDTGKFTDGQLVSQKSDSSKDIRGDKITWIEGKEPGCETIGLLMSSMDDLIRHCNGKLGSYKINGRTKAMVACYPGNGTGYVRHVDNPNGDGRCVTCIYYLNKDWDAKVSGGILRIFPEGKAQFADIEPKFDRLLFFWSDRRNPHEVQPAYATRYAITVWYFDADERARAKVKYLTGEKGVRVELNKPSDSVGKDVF
Description: (§1) H3_1-15K9me3, histone 3 (H3), residues 1–15 with K9 of H3-bearing three methyl groups at the N^ε-position, K4 of H3 substituted by an alanine residue, and K14 of H3 by an isoleucine residue,[73] for KDM4E; and RPL27A, residues 31–49, for RIOX2 (Mina53).[44]
(§2) Cosubstrate/cofactor stock solutions [L-ascorbic acid/LAA: 50 mM in MQ-grade water; 2-oxoglutarate/2OG: 10 mM in MQ-grade water; ammonium iron(II) sulfate hexahydrate/FAS/(NH4)2Fe(SO4)2·6H2O: 400 mM in 20 mM HCl diluted to 1 mM in MQ-grade water] were freshly prepared from commercial solids (Sigma-Aldrich) on the day the assays were performed. The JMJD5,[42] PHD2,[70] FIH,[70] KDM4E,[72],[73] RIOX2,[44] and AspH[45] […] For JMJD5, PHD2, FIH, RIOX2, and AspH, substrate hydroxylation was monitored (+16 Da mass shift), while for the KDM4E substrate, demethylation was monitored (−14 Da mass shift) by SPE-MS.

[3] = molecular target: T3, AspH (Homo sapiens, UniProt Q12797); test: SPE-MS AspH inhibition assay (hFX-CP101–119 hydroxylation); assay type: biochemical; details: Table 2; His6-AspH315–758 0.05 μM, 1.0 μM hFX-CP101–119; n = 2, mean ± SD
T3 construct: N-terminally His6-tagged AspH315–758; made in house; host or cells: Escherichia coli
T3 sequence (Q12797 315-758): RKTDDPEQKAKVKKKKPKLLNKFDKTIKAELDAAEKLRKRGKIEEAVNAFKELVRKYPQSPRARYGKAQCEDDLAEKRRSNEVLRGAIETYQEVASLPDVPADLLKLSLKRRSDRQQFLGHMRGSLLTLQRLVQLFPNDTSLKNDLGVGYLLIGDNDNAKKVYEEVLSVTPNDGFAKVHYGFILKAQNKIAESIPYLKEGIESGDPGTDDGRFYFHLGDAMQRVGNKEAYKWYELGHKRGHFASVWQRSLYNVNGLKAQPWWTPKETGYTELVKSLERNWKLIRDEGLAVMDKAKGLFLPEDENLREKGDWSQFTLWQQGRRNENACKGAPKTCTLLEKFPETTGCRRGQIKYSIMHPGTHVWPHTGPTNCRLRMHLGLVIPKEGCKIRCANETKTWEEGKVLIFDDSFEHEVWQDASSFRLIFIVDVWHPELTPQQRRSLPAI
Description: as §1, §2

[4] = molecular target: T4, KDM4E (Homo sapiens, UniProt B2RXH2); test: SPE-MS KDM4E inhibition assay (demethylation of H3 1–15 K9me3); assay type: biochemical; details: Table 2, 10.0 μM H3 1–15 K9me3, n = 2, mean ± SD
T4 construct: made in house; host or cells: Escherichia coli
T4 sequence (B2RXH2 1-506): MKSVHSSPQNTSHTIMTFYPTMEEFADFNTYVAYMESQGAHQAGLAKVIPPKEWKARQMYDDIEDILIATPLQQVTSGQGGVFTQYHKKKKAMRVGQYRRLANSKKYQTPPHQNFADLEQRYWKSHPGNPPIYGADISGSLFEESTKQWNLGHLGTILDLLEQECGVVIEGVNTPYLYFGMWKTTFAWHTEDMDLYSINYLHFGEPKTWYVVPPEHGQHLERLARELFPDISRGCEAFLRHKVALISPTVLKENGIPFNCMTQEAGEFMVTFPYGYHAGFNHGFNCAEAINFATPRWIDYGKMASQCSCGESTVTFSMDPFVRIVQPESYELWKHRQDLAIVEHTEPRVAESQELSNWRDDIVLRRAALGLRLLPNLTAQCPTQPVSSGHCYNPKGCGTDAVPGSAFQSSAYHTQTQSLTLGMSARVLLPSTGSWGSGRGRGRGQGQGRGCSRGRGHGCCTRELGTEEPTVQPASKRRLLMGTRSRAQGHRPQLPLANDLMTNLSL
Description: as §1, §2

[5] = molecular target: T5, FIH (Homo sapiens, UniProt Q9NWT6); test: SPE-MS FIH inhibition assay (HIF-1α CAD hydroxylation); assay type: biochemical; details: Table 2; His6-FIH 0.15 μM, 5.0 μM HIF-1α CAD; n = 2, mean ± SD
T5 construct: made in house; host or cells: Escherichia coli
T5 sequence (Q9NWT6 whole entry): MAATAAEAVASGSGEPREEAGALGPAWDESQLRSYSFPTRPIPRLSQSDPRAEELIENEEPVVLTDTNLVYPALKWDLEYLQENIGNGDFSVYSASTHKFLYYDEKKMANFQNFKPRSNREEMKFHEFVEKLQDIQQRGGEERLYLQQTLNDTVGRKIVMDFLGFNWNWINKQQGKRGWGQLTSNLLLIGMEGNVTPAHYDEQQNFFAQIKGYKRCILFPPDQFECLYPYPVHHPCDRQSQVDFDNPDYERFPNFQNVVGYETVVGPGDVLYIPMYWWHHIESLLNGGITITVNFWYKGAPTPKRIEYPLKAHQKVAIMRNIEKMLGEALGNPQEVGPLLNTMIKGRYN
Description: HIF-α CAD, residues 788–822, for FIH;[70]
Cosubstrate/cofactor stock solutions [L-ascorbic acid/LAA: 50 mM in MQ-grade water; 2-oxoglutarate/2OG: 10 mM in MQ-grade water; ammonium iron(II) sulfate hexahydrate/FAS/(NH4)2Fe(SO4)2·6H2O: 400 mM in 20 mM HCl diluted to 1 mM in MQ-grade water] were freshly prepared from commercial solids (Sigma-Aldrich) on the day the assays were performed. […] FIH,[70] […] SPE-MS inhibition assays were performed as described in the cited literature, using isolated recombinant human enzymes (His6-thioredoxin-JMJD5,[42] His6-PHD2_181–426,[70] His6-FIH,[70] His6-KDM4E,[72],[73] His6-RIOX2_26–465,[87],[88] and His6-AspH315–758[48],[80]) and synthetic peptide substrates (RPS6_128–148 for JMJD5;[42] HIF-α CODD558–574 for PHD2;[70] HIF-α CAD788–822 for FIH;[70] H3_1–15K9me3 for KDM4E;[73] RPL27A31–49 for RIOX2;[44],[71] and hFX-CP101–119 for AspH;[45],[48] see above). For JMJD5, PHD2, FIH, RIOX2, and AspH, substrate hydroxylation was monitored (+16 Da mass shift), while for the KDM4E substrate, demethylation was monitored (−14 Da mass shift) by SPE-MS.

[6] = tested on: PC3 prostate adenocarcinoma cells; test: MTS cell viability assay, PC3; assay type: cell-based; details: 1.0–100 μM, 72 h
Source text: (§3) A biochemical readout of JMJD5 arginine residue hydroxylase activity in cells is not available; we thus focused our studies on biological readouts previously linked to JMJD5 function in order to investigate cellular responses resulting from JMJD5 inhibitor treatment. JMJD5 loss of function by RNA interference is reported to affect tumor cell proliferation and viability;[16],[18],[20],[21] we therefore studied the effects of 19i and 19j on the growth of three different tumor cell lines.
(§4) (a) U2OS bone osteosarcoma, (b) A549 lung adenocarcinoma, and (c) PC3 prostate adenocarcinoma cells were treated with the indicated doses of 19i and 19j (1.0, 5.0, 10, 50, and 100 μM) for 72 h and then tested for viability using the 3-(4,5-dimethylthiazol-2-yl)-5-(3-carboxymethoxyphenyl)-2-(4-sulfophenyl)-2H-tetrazolium (MTS) assay. A549 cells were treated with 19i or 19j (1.0 μM) for 24 h, then stained with (d) propidium iodide and analyzed by FACS or (e) DAPI staining for nuclei (left) and anti-53BP1 (for 53BP1 bodies, right). Cells were counted for 53BP1 bodies (f) and micronuclei (g). […] For 53BP1 bodies, a minimum of 300 cells were counted per sample. For micronuclei, a minimum of 500 cells were counted per sample. […]
(§5) Cell proliferation/viability was measured using MTS (CellTiter 96 Aqueous One 667 Solution Cell Proliferation Assay, Promega) and CyQUANT (Thermo Fisher) assays. […]

[7] = tested on: U2OS bone osteosarcoma cells; test: MTS cell viability assay, U2OS; assay type: cell-based; details: for CC50: Homo sapiens
Source text: as §3
(a) U2OS bone osteosarcoma, (b) A549 lung adenocarcinoma, and (c) PC3 prostate adenocarcinoma cells were treated with the indicated doses of 19i and 19j (1.0, 5.0, 10, 50, and 100 μM) for 72 h and then tested for viability using the 3-(4,5-dimethylthiazol-2-yl)-5-(3-carboxymethoxyphenyl)-2-(4-sulfophenyl)-2H-tetrazolium (MTS) assay. A549 cells were treated with 19i or 19j (1.0 μM) for 24 h, then stained with (d) propidium iodide and analyzed by FACS or (e) DAPI staining for nuclei (left) and anti-53BP1 (for 53BP1 bodies, right). Cells were counted for 53BP1 bodies (f) and micronuclei (g). Data represent mean ± SEM from three (a–d) or four (f–g) independent replicates. For 53BP1 bodies, a minimum of 300 cells were counted per sample. For micronuclei, a minimum of 500 cells were counted per sample. Statistical analyses used one-way ANOVA with Tukey’s post hoc test [with p-value ≤ 0.01 (**)]. […]
Cell proliferation/viability was measured using MTS (CellTiter 96 Aqueous One 667 Solution Cell Proliferation Assay, Promega) and CyQUANT (Thermo Fisher) assays. […] Plates were incubated for 1 h at 37 °C under 5% CO2, protected from light, and then the absorbance was measured at 490 nm using an EnSpire Multimode plate reader (PerkinElmer). […] The cells were incubated for 1 h at 37 °C under 5% CO2, protected from light; fluorescence was then measured with excitation at ∼485 nm and emission detection at ∼530 nm using an EnSpire Multimode plate reader.

[8] = tested on: U2OS bone osteosarcoma cells; test: CyQuant viability assay (DNA content), U2OS; assay type: cell-based; details: 1.0–100 μM, 72 h
Description: Cell proliferation/viability was measured using MTS (CellTiter 96 Aqueous One 667 Solution Cell Proliferation Assay, Promega) and CyQUANT (Thermo Fisher) assays. CellTiter 96 Aqueous MTS reagent (Promega) and phenazine methosulfate (Sigma-Aldrich) were dissolved in phosphate-buffered saline (PBS) according to the manufacturer’s protocol. The MTS working reagent was made according to the manufacturer’s protocol and added to each well containing the cells. Plates were incubated for 1 h at 37 °C under 5% CO2, protected from light, and then the absorbance was measured at 490 nm using an EnSpire Multimode plate reader (PerkinElmer). For the cyQUANT assay, the reagents were prepared according to the manufacturer’s protocol and added to the cells. The cells were incubated for 1 h at 37 °C under 5% CO2, protected from light; fluorescence was then measured with excitation at ∼485 nm and emission detection at ∼530 nm using an EnSpire Multimode plate reader.
viability of U2OS bone osteosarcoma cells.
derivatives 19i and 19j (1.0, 5.0, 10, 50, 100 μM) for 72 h and then tested for viability using the CyQuant assay,
which measures DNA content. Data represent mean ± SEM from independent experiments.
(1 picture or pasted object on this page, not shown here)

[9] = tested on: A549 cells; test: Replication stress: 53BP1 bodies and micronuclei (immunofluorescence/DAPI); assay type: cell-based; details: 1.0 μM, 24 h
Description: (§6) (a) U2OS bone osteosarcoma, (b) A549 lung adenocarcinoma, and (c) PC3 prostate adenocarcinoma cells were treated with the indicated doses of 19i and 19j (1.0, 5.0, 10, 50, and 100 μM) for 72 h and then tested for viability using the 3-(4,5-dimethylthiazol-2-yl)-5-(3-carboxymethoxyphenyl)-2-(4-sulfophenyl)-2H-tetrazolium (MTS) assay. A549 cells were treated with 19i or 19j (1.0 μM) for 24 h, then stained with (d) propidium iodide and analyzed by FACS or (e) DAPI staining for nuclei (left) and anti-53BP1 (for 53BP1 bodies, right). Cells were counted for 53BP1 bodies (f) and micronuclei (g). Data represent mean ± SEM from three (a–d) or four (f–g) independent replicates. For 53BP1 bodies, a minimum of 300 cells were counted per sample. For micronuclei, a minimum of 500 cells were counted per sample. Statistical analyses used one-way ANOVA with Tukey’s post hoc test [with p-value ≤ 0.01 (**)].
(§7) Because JMJD5 RNA interference has been associated with disturbances in the cell cycle,[1],[2],[81],[82] we measured phase distribution by flow cytometry in A549 cells (Figure 6d). Treatment with 19i or 19j for 24 h caused a reduction in G1-phase cells, with a corresponding increase in S- and G2/M-phase cells. […] We have recently reported that JMJD5 loss of function induces replication stress,[14] which is defined as a perturbation that slows or stalls DNA replication.[83] Unresolved replication stress can be measured by an increase in G1-phase 53BP1 “bodies” and micronuclei (Figure 6e), which are extranuclear DNA bodies that result from DNA cleavage and genome instability following replication stress.
Cells on coverslips were pre-extracted on ice for 5 min using a buffer containing 20 mM NaCl, 3 mM MgCl2, 300 mM sucrose, 10 mM PIPES, and 0.5%v/v Triton X-100 and fixed using 4%v/v paraformaldehyde (PFA) in PBS for 15 min at ambient temperature. Cells were then permeabilized in 0.1%v/v Triton X-100 in PBS at ambient temperature for 10 min and blocked in 1%w/v bovine serum albumin (BSA) in PBS for 1 h at ambient temperature. Coverslips were incubated with anti-53BP1 antibody (Bio-Techne, NB100-904V) diluted in 1%w/v BSA in PBS at ambient temperature for 1 h in the dark. Coverslips were then washed three times with cold 1%w/v BSA in PBS following incubation for 1 h with secondary antibodies (anti-mouse 555 nm A31570 or anti-rabbit 488 nm A11070, Thermo Fisher). The coverslips were washed three times with cold PBS and incubated for 10 min with 4′,6-diamidino-2-phenylindole (DAPI) (Invitrogen) to stain for nuclei. Prolong Gold Antifade Reagent (Cell Signaling Technology) was used to mount the coverslips onto microscope slides. Images were taken using 40× objective on a Leica DM6000 fluorescent microscope and processed with ImageJ.

[10] = tested on: A549 cells; test: Cell-cycle analysis (propidium iodide, FACS); assay type: cell-based; details: 1.0 μM, 24 h
Description: as §6, §7
Cell-cycle analyses were performed using A549 cells fixed in ice-cold 70%v/v ethanol. Cells were incubated with 100 μg/mL RNase A (Thermo Fisher Scientific), stained with 20 μg/mL propidium iodide, and then analyzed using Beckman Coulter CytoFLEX S. Representative FACS profiles were generated using Beckman CytExpert software.

[11] = tested on: A549 lung adenocarcinoma cells; test: MTS cell viability assay, A549; assay type: cell-based; details: Homo sapiens, 72 h, read-out: half-maximum cytotoxicity concentration (CC50)
Source text: as §3, §4, §5

SMILES | IC50 [1] [µM] | IC50 [2] [µM] | IC50 [3] [µM] | IC50 [4] [µM] | IC50 [5] [µM] | effect on cell growth (in words) [6] | effect on cell growth (in words) ([7]; 1.0–100 μM, 72 h, MTS) | CC50 ([7]; supplementary CSV, read-out: CC50 U2OS cells) [µM] | viability (CyQuant, in words) [8] | 53BP1 bodies [9] | micronuclei [9] | G1-phase cells [10] | S- and G2/M-phase cells [10] | Sub-G1-phase cell numbers [10] | CC50 [11] [µM] | CC50 ([7]; 72 h, MTS, read-out: half-maximum cytotoxicity concentration (CC50)) [µM]
O=C(O)c1cc(C(=O)O)c(NCc2ccccc2C2CC2)cn1 [Compound 20j, 5-((2-cyclopropylbenzyl)amino)pyridine-2,4-dicarboxylic acid] | > 50 | > 50 | 8.9 ± 5 | > 50 | > 50 | – | – | – | – | – | – | – | – | – | – | –
COC(=O)c1cc(C(=O)OC)c(NCc2ccccc2OC)cn1 [Compound 19i] | – | – | – | – | – | did not significantly affect | did not significantly affect | > 100 | reduced viability | significantly induced | significantly induced | reduction | increase | increased | 10.7 | –
COC(=O)c1cc(C(=O)OC)c(NCc2ccccc2C2CC2)cn1 [Compound 19j] | – | – | – | – | – | – | – | – | reduced viability | significantly induced | significantly induced | reduction | increase | increased | 2.1 | 10
